Tested on: Vero 76 cells viability (cytotoxicity)
Assay: Vero 76 cell cytotoxicity, dose response, cytotoxicity control, set 4 (AID 623936)

Q: Which CC50 does the source give for `CN(C(=O)Cc1cccs1)c1nc2c(s1)CCCC2` here?
A: Its CC50 is 18.5 µM.

From PubChem BioAssay AID623936 (Southern Research Specialized Biocontainment Screening …, 2012)
